The text below walks through data of patent US6492350B2, “Chitin oligosaccharides and/or chitosan oligosaccharides for preventing or treating common cold or treating pain” (JDC (Hawaii) Inc., priority 2000, dated 2002).

Data set [1] can be described thus: Clinical study of CCOS analgesia in volunteers with painful conditions (short-form McGill Pain Questionnaire). Type of data set: in vivo, human. The following applies: patient. On the procedure: This modification is a hybrid form utilizing both a Visual Analogue Scale rating pain from 0 (no pain) to 5 (excruciating) as well as a pain questionnaire rating the pain from 0 (no pain) to 3 (severe) along with the following descriptions:
To test the effectiveness of chitin chitosan oligosaccharide (CCOS) in providing satisfactory analgesia in both nociceptive and neuropathic pain, a clinical study was conducted with volunteers suffering from a variety of rather common painful conditions (see Table 11). Pain can be an extremely subjective phenomena; there is no laboratory or radiological test to measure its severity or indeed even its presence as described elsewhere p. 8). […] “There is a whole literature of validated, subjective tools that are absolutely reliable” (Melvin C. Gitlin, MD Professor of Anesthesiology, Tulane University School of Medicine and Director of the Pain Management Center at the Tulane University Hospital Clinic) The conditions of all of the volunteers in this study have been documented by physicians, in some cases more than one, and their pain substantiated. […] Our methods, utilizing human subjects is equally valid and acceptable (36). (see Modified McGill Pain form used as the basis to evaluate pain).

The conditions of data set [2]: in vivo, po; cited from earlier work.

For the molecule `CC(=O)Oc1ccccc1C(=O)O` [ASA], the “Degree of Pain Reduction” value in data set [1] (acute pharangitis, nociceptive (inflammatory), CCOS 150 mg STAT then 100 mg PRN) is “no significant improvement”.
Regarding `CC(=O)Nc1ccc(O)cc1` [Tylenol, Acetaminophen], in data set [1] (low back pain secondary to strain, nociceptive, CCOS 400 mg STAT then 300 mg QID), the “Degree of Pain Reduction” value was “little or no effect”.
On to Chitin, for which, in data set [2], the absorbed orally is given as 20-40%.
